Measured values: publication PMC12148371 (iScience, 2025)

System: pseudotyped A-MLV
Experiment: not given
Format: cell-based, amphotropic murine leukemia virus
Settings: not given
For `CC1(C)CC(NC(=O)C(=O)Nc2ccc(Cl)c(F)c2)CC(C)(C)N1` [JRC-II-191], the “neutralization of pseudotyped A-MLV” value was “did not neutralize”.

System: infectious EBOV
Experiment: microbe, parasite or virus in culture
Format: cell-based, Ebola Zaire virus
Settings: Zaire ebolavirus, read-out: Infectious EBOV (IC50)
With `CC1(C)CC(NC(=O)C(=O)Nc2ccc(C(C)(C)C)cc2)CC(C)(C)N1` [Compd N9] the IC50 was 9.46 µM. For `CC1(C)CC(NC(=O)C(=O)Nc2ccc(C(C)(C)C)c(F)c2)CC(C)(C)N1` [DY-III-228], the IC50 was 0.56 µM. `CC1(C)CC(NC(=O)C(=O)Nc2ccc(Cl)c(F)c2)CC(C)(C)N1` [JRC-II-191] gave an IC50 of 5.25 µM. `CC1(C)CC(NC(=O)C(=O)Nc2ccc(Cl)cc2)CC(C)(C)N1` [NBD-556] gave an IC50 of 18.8 µM.

System: pseudotyped EBOV
Experiment: microbe, parasite or virus in culture
Format: cell-based, Zaire ebolavirus
Settings: not given
With `CNCc1ccc2c(c1)C[C@H](CNC(=N)N)[C@H]2NC(=O)C(=O)Nc1ccc(Cl)c(F)c1` [BNM-III-170] the “inhibition potency against EBOV, in words” value was “largely reduced”.

Same assay, conditions: Zaire ebolavirus, TZM-bl, read-out: EBOV (IC50)
Compound `CNCc1ccc2c(c1)C[C@H](CNC(=N)N)[C@H]2NC(=O)C(=O)Nc1ccc(Cl)c(F)c1` [BNM-III-170] has an IC50 greater than 30 µM. Work on `CC1(C)CC(NC(=O)C(=O)Nc2ccc(C(C)(C)C)cc2)CC(C)(C)N1` [Compd N9] yielded an IC50 of 9.51 ± 1.6 µM. `CC1(C)CC(NC(=O)C(=O)Nc2ccc(C(F)(F)F)c(F)c2)CC(C)(C)N1` [DY-III-226] showed an IC50 of 11.1 µM. In the case of `CC1(C)CC(NC(=O)C(=O)Nc2cc(F)c(Cl)c(F)c2)CC(C)(C)N1` [DY-III-227], the IC50 is reported as 12.1 µM. With `CC1(C)CC(NC(=O)C(=O)Nc2ccc(C(C)(C)C)c(F)c2)CC(C)(C)N1` [DY-III-228] the IC50 was 1.98 ± 0.5 µM. With `CC1(C)CC(NC(=O)C(=O)Nc2ccc(Cl)c(F)c2)CC(C)(C)N1` [JRC-II-191] the IC50 was 9.52 ± 1.4 µM. Compound `CC1(C)CC(NC(=O)C(=O)Nc2ccc(Cl)cc2)CC(C)(C)N1` [NBD-556] has an IC50 of 18.2 ± 1 µM. With `CC1(C)CC(NC(=O)C(=O)Nc2ccc(Br)cc2)CC(C)(C)N1` [NBD-557] the IC50 was 19.8 ± 1.7 µM.

Same assay, conditions: read-out: EBOV (IC50)
For `CC1(C)CC(NC(=O)C(=O)Nc2ccc(C(F)(F)F)c(F)c2)CC(C)(C)N1` [DY-III-226], the IC50 was 11.2 ± 0.8 µM. `CC1(C)CC(NC(=O)C(=O)Nc2cc(F)c(Cl)c(F)c2)CC(C)(C)N1` [DY-III-227] gave an IC50 of 12.5 ± 1.5 µM.

System: not listed separately
Experiment: in vitro
Settings: human
With `CC1(C)CC(NC(=O)C(=O)Nc2ccc(C(C)(C)C)cc2)CC(C)(C)N1` [Compd N9] the CC50 was greater than 100 µM. Work on `CC1(C)CC(NC(=O)C(=O)Nc2ccc(C(F)(F)F)c(F)c2)CC(C)(C)N1` [DY-III-226] yielded a CC50 of 48.4 ± 5.4 µM. `CC1(C)CC(NC(=O)C(=O)Nc2cc(F)c(Cl)c(F)c2)CC(C)(C)N1` [DY-III-227] gave a CC50 of 68.3 ± 4.3 µM. `CC1(C)CC(NC(=O)C(=O)Nc2ccc(C(C)(C)C)c(F)c2)CC(C)(C)N1` [DY-III-228] gave a CC50 of 20.6 ± 2.6 µM. With `CC1(C)CC(NC(=O)C(=O)Nc2ccc(Cl)c(F)c2)CC(C)(C)N1` [JRC-II-191] the CC50 was 43.2 ± 6 µM. Compound `CC1(C)CC(NC(=O)C(=O)Nc2ccc(Cl)cc2)CC(C)(C)N1` [NBD-556] has a CC50 of 67.7 ± 7.3 µM.

Molecular target: GP-RBD-Fc (without the glycan cap and MLD) (Bundibugyo ebolavirus (key resources table); called EBOV in the results)
Experiment: BLI; pH 7.4
Settings: not given
Compound “human soluble CD4-183 (sCD4-183) two-domain protein (domain or fragment)” has a Kd of 52 µM.

Molecular target: GP-RBD-Fc (without the glycan cap and MLD) (Bundibugyo ebolavirus (key resources table); called EBOV in the results)
Experiment: BLI; pH 6.1
Settings: not given
“human soluble CD4-183 (sCD4-183) two-domain protein (domain or fragment)” showed a Kd of 0.36 µM.

System: pseudotyped BDBV
Experiment: microbe, parasite or virus in culture
Format: cell-based, Bundibugyo ebolavirus
Settings: Bundibugyo virus, TZM-bl, read-out: BDBV (IC50)
For `CC1(C)CC(NC(=O)C(=O)Nc2ccc(C(C)(C)C)cc2)CC(C)(C)N1` [Compd N9], the IC50 was 17.6 ± 2.7 µM. `CC1(C)CC(NC(=O)C(=O)Nc2ccc(C(F)(F)F)c(F)c2)CC(C)(C)N1` [DY-III-226] gave an IC50 of 10.6 ± 0.5 µM. In the case of `CC1(C)CC(NC(=O)C(=O)Nc2cc(F)c(Cl)c(F)c2)CC(C)(C)N1` [DY-III-227], the IC50 is reported as 12.1 ± 0.7 µM. With `CC1(C)CC(NC(=O)C(=O)Nc2ccc(C(C)(C)C)c(F)c2)CC(C)(C)N1` [DY-III-228] the IC50 was 2.25 ± 0.2 µM. Work on `CC1(C)CC(NC(=O)C(=O)Nc2ccc(Cl)c(F)c2)CC(C)(C)N1` [JRC-II-191] yielded an IC50 of 9.99 ± 1.1 µM. With `CC1(C)CC(NC(=O)C(=O)Nc2ccc(Cl)cc2)CC(C)(C)N1` [NBD-556] the IC50 was 16.8 ± 2.1 µM. For `CC1(C)CC(NC(=O)C(=O)Nc2ccc(Br)cc2)CC(C)(C)N1` [NBD-557], the IC50 was 10.6 ± 1.8 µM.

System: pseudotyped VSV
Experiment: not given
Format: cell-based, vesicular stomatitis virus
Settings: not given
With `CC1(C)CC(NC(=O)C(=O)Nc2ccc(Cl)c(F)c2)CC(C)(C)N1` [JRC-II-191] the “neutralization of pseudotyped VSV” value was “did not neutralize”.

System: NPC1 binding to Ebola GP-RBD
Experiment: not given
Parameters: species or system Ebola virus
Settings: not given
In the case of `CC1(C)CC(NC(=O)C(=O)Nc2ccc(C(C)(C)C)c(F)c2)CC(C)(C)N1` [DY-III-228], the “NPC1 binding remaining (A488+ cells) in presence of competitor” value (shortened to “NPC1 binding remaining (A488+ cells)”) is reported as 30.90%. With `CC1(C)CC(NC(=O)C(=O)Nc2ccc(Cl)c(F)c2)CC(C)(C)N1` [JRC-II-191] the “NPC1 binding remaining (A488+ cells)” value was 24.29%. In the case of `CC1(C)CC(NC(=O)C(=O)Nc2ccc(Cl)cc2)CC(C)(C)N1` [NBD-556], the “NPC1 binding remaining (A488+ cells)” value is reported as 28.36%.
